Results from patent publication US10703746B2, “Mutant IDH1 inhibitors useful for treating cancer” (THE UNITED STATES OF AMERICA, AS REPRESENTED BY THE …, priority 2014, dated 2020).

Assays:
IDH1 R132H = IDH1 R132H (Homo sapiens, UniProt O75874, R132H); assay: IDH1 R132H enzymatic assay (NADPH depletion coupled to diaphorase/resazurin); assay type: biochemical; conditions: IDH1 R132H enzymatic inhibition, IC50 class
IDH1 R132C = IDH1 R132C (Homo sapiens, UniProt O75874, R132C); assay: IDH1 R132C enzymatic assay (NADPH depletion coupled to diaphorase/resazurin); assay type: biochemical; conditions: IDH1 R132C enzymatic inhibition, IC50 class
IDH1 R132C, sequence (O75874 whole entry R132C): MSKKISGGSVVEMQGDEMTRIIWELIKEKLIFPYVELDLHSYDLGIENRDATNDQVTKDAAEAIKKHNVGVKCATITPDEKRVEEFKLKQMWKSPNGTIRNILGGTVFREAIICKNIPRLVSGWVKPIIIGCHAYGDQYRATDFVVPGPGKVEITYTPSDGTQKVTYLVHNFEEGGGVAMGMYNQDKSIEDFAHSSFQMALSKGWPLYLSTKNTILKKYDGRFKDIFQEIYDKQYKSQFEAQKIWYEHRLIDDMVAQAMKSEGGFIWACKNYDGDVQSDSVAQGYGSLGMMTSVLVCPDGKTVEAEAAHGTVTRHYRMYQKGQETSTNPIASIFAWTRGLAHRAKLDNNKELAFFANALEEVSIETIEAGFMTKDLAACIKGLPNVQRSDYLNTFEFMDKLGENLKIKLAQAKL
In short: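 NADPH depletion, read via diaphorase/resazurin coupling, after adding substrate at 0.6 mM α-KG and 0.012 mM NADPH. Beforehand, 0.00032 mg/mL enzyme sat with compound 30 min at room temperature in pH 6.5 potassium phosphate buffer with MgCl2, glycerol and BSA.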

IDH1 R132H, sequence (O75874 whole entry R132H): as the sequence (O75874 whole entry R132C) above, with C132H counted along it

| SMILES | IC50 (IDH1 R132H) | IC50 (IDH1 R132C) |
| --- | --- | --- |
| COc1ccc([N+](=O)[O-])cc1-n1c2c(cc(-c3nc(-c4ccc(Cl)cc4)cs3)c1=O)C(=O)CC(C)(C)C2 [Compound 128] | 1000 to 5000 nM | 1000 to 5000 nM |
| COc1ccc(OC)c(-n2c3c(cc(-c4nc(-c5ccc(Cl)cc5)cs4)c2=O)C(=O)CCC3)c1 [Compound 129] | 1000 to 5000 nM | 1000 to 5000 nM |
| CC(C)Oc1ccccc1-n1c2c(cc(-c3nc(-c4ccc(Cl)cc4)cs3)c1=O)C(=O)CC(C)(C)C2 [Compound 130] | 1000 to 5000 nM | 300 to 1000 nM |
| CCc1cccc(CC)c1-n1c(CC(C)C)c(C(=O)N2CCN[C@@H](C(=O)OC)C2)cc(-c2nc(-c3ccc(Cl)cc3)cs2)c1=O [Compound 131] | 1000 to 5000 nM | < 300 nM |
| CCc1cccc(CC)c1-n1c2c(cc(-c3nc(-c4ccncc4)cs3)c1=O)C(=O)CC(C)(C)C2 [Compound 132] | 1000 to 5000 nM | 1000 to 5000 nM |
| CCc1cccc(CC)c1-n1c(C)c(C(=O)N(C)CCCNC)cc(-c2nc(-c3ccc(Cl)cc3)cs2)c1=O [Compound 133] | 5000 to 20000 nM | 1000 to 5000 nM |
| CCSc1ccccc1-n1c2c(cc(-c3nc(-c4ccc(Cl)cc4)cs3)c1=O)C(=O)CC(C)(C)C2 [Compound 134] | 1000 to 5000 nM | 300 to 1000 nM |
| CCCSc1ccccc1-n1c2c(cc(-c3nc(-c4ccc(Cl)cc4)cs3)c1=O)C(=O)CC(C)(C)C2 [Compound 135] | 1000 to 5000 nM | 300 to 1000 nM |
| COc1cc(C(=O)O)ccc1-n1c2c(cc(-c3nc(-c4ccc(Cl)cc4)cs3)c1=O)C(=O)CC(C)(C)C2 [Compound 136] | > 20000 nM | > 20000 nM |
| CCc1cccc(CC)c1-n1c(CC(C)C)c(C(=O)N2CCNCC2)cc(-c2nc(-c3ccc(N4CCNCC4)cc3)c(C)s2)c1=O [Compound 137] | > 20000 nM | > 20000 nM |
| CCc1cccc(CC)c1-n1c(C)c(C(=O)N2CCNC(=O)C2)cc(-c2nc(-c3ccc(Cl)cc3)cs2)c1=O [Compound 138] | < 300 nM | 1000 to 5000 nM |
| CCc1cccc(CC)c1-n1c(C)c(C(=O)N2CC(N)C2)cc(-c2nc(-c3ccc(Cl)cc3)cs2)c1=O [Compound 139] | 1000 to 5000 nM | 1000 to 5000 nM |
| CCc1cccc(CC)c1-n1c(CC(C)C)c(C(=O)NC[C@H](NC(C)=O)C(=O)O)cc(-c2nc(-c3ccc(Cl)cc3)cs2)c1=O [Compound 140] | 5000 to 20000 nM | 5000 to 20000 nM |
| CCc1cccc(CC)c1-n1c(CC(C)C)c(C(=O)N2CCN[C@@H](C)C2)cc(-c2nc(-c3ccc(Cl)cc3)cs2)c1=O [Compound 141] | 300 to 1000 nM | < 300 nM |
| CCc1cccc(CC)c1-n1c(C)c(C(=O)N2CCNC[C@H]2C)cc(-c2nc(-c3ccc(Cl)cc3)cs2)c1=O [Compound 142] | < 300 nM | 300 to 1000 nM |
| CCc1cccc(CC)c1-n1c(C)c(C(=O)O)cc(-c2nc(-c3ccc(Cl)cc3)cs2)c1=O [Compound 143] | 5000 to 20000 nM | 5000 to 20000 nM |
| COc1ccc(OC)c(-n2c3c(cc(-c4nc(-c5ccc(Cl)cc5)cs4)c2=O)C=CC(C)(C)C3)c1 [Compound 144] | 1000 to 5000 nM | 1000 to 5000 nM |
| CCc1cccc(CC)c1-n1c(CC(C)C)c(C(=O)N2CCNCC2c2ccccc2)cc(-c2nc(-c3ccc(Cl)cc3)cs2)c1=O (centres unmarked) [Compound 145] | 300 to 1000 nM | < 300 nM |
| CCc1cccc(CC)c1-n1c(C)c(C(=O)NCC(C)(C)C)cc(-c2nc(-c3ccc(Cl)cc3)cs2)c1=O [Compound 146] | > 20000 nM | 1000 to 5000 nM |
| CCc1cccc(CC)c1-n1c(CC(C)C)c(C(=O)N2CCNCC2C(=O)OC)cc(-c2nc(-c3ccc(Cl)cc3)cs2)c1=O (centres unmarked) [Compound 147] | 1000 to 5000 nM | < 300 nM |
| CCc1cccc(CC)c1-n1c2c(cc(-c3nc(-c4ccc(F)cc4)cs3)c1=O)C(=O)CC(C)(C)C2 [Compound 148] | 300 to 1000 nM | 300 to 1000 nM |
| COc1ccc(OC)c(-n2c3c(cc(-c4nc5ccc(Cl)cc5s4)c2=O)C(=O)CC(C)(C)C3)c1 [Compound 149] | > 20000 nM | 1000 to 5000 nM |
| CC1(C)CC(=O)c2cc(-c3nc(-c4ccc(Cl)cc4)cs3)c(=O)n(-c3ccccc3)c2C1 [Compound 150] | 5000 to 20000 nM | 5000 to 20000 nM |
| CCc1cccc(CC)c1-n1c(C)c(C(=O)NC[C@@H](C)O)cc(-c2nc(-c3ccc(Cl)cc3)cs2)c1=O [Compound 151] | 1000 to 5000 nM | 300 to 1000 nM |
| CCc1cccc(CC)c1-n1c(C)c(C(=O)N(C)CCN)cc(-c2nc(-c3ccc(Cl)cc3)cs2)c1=O [Compound 152] | 1000 to 5000 nM | 1000 to 5000 nM |
| CCc1cccc(CC)c1-n1c(C)c(C(=O)NCCO)cc(-c2nc(-c3ccc(Cl)cc3)cs2)c1=O [Compound 153] | 300 to 1000 nM | 1000 to 5000 nM |
| COc1ccc(OC)c(-n2c3c(cc(-n4cnc(-c5ccccc5)c4)c2=O)C(=O)CC(C)(C)C3)c1 [Compound 154] | 5000 to 20000 nM | 5000 to 20000 nM |
| CCc1cccc(CC)c1-n1c(CC(C)C)c(C(=O)N2CCNC(=O)C2c2ccccc2)cc(-c2nc(-c3ccc(Cl)cc3)cs2)c1=O (centres unmarked) [Compound 155] | 300 to 1000 nM | < 300 nM |

| SMILES | IC50 (IDH1 R132H) | IC50 (IDH1 R132C) |
| --- | --- | --- |
| CCc1cccc(CC)c1-n1c(C)c(C(=O)N2CCCCC2)cc(-c2nc(-c3ccc(Cl)cc3)cs2)c1=O [Compound 156] | 1000 to 5000 nM | 1000 to 5000 nM |
| COc1ccc(OC)c(-n2c3c(cc(-c4ccn(-c5ccccc5)n4)c2=O)C(=O)CC(C)(C)C3)c1 [Compound 158] | 1000 to 5000 nM | 1000 to 5000 nM |
| CCc1cccc(CC)c1-n1c(CC(C)C)c(C(=O)NC2CCCCC2O)cc(-c2nc(-c3ccc(Cl)cc3)cs2)c1=O (centres unmarked) [Compound 159] | 1000 to 5000 nM | 1000 to 5000 nM |
| CCc1cccc(CC)c1-n1c(CC(C)C)c(C(=O)N2CCNCC2)cc(-c2nc(-c3ccc(C(C)(C)C)cc3)c(C)s2)c1=O [Compound 160] | 1000 to 5000 nM | 1000 to 5000 nM |
| CCc1cccc(CC)c1-n1c2c(cc(-c3nc(-c4cnc(C)nc4)c(C)s3)c1=O)C(=O)CC(C)(C)C2 [Compound 161] | 5000 to 20000 nM | 1000 to 5000 nM |
| CCc1cccc(CC)c1-n1c2c(cc(-c3nc(-c4ccc(C(=O)O)cc4)cs3)c1=O)C(=O)CC(C)(C)C2 [Compound 162] | > 20000 nM | 5000 to 20000 nM |
| CCc1cccc(CC)c1-n1c2c(cc(-c3nc(-c4cccc(OC)c4)cs3)c1=O)C(=O)CC(C)(C)C2 [Compound 163] | > 20000 nM | > 20000 nM |
| CSc1ccccc1-n1c2c(cc(-c3nc(-c4ccc(Cl)cc4)cs3)c1=O)C(=O)CC(C)(C)C2 [Compound 164] | 1000 to 5000 nM | 300 to 1000 nM |
| COc1ccc(-n2cccc(-c3nc(-c4ccc(Cl)cc4)cs3)c2=O)c(OC)c1 [Compound 165] | > 20000 nM | > 20000 nM |
| Cc1ccc(C(=O)O)cc1-n1c2c(cc(-c3nc(-c4ccc(Cl)cc4)cs3)c1=O)C(=O)CC(C)(C)C2 [Compound 166] | > 20000 nM | 5000 to 20000 nM |
| CC1(C)CC(=O)c2cc(-c3nc(-c4ccc(Cl)cc4)cs3)c(=O)n(-c3ccccc3Cl)c2C1 [Compound 167] | < 300 nM | < 300 nM |
| CCc1cccc(CC)c1-n1c(C(C)C)c(C(=O)N2CCNC(=O)C2)cc(-c2nc(-c3ccc(Cl)cc3)cs2)c1=O [Compound 168] | 300 to 1000 nM | 300 to 1000 nM |
| CCc1cccc(CC)c1-n1c(C)c(C(=O)NCCOC)cc(-c2nc(-c3ccc(Cl)cc3)cs2)c1=O [Compound 169] | 1000 to 5000 nM | 300 to 1000 nM |
| CCc1cccc(CC)c1-n1c(-c2ccccc2)c(C#N)cc(-c2nc(-c3ccc(Cl)cc3)cs2)c1=O [Compound 170] | 5000 to 20000 nM | 1000 to 5000 nM |
| CCc1cccc(CC)c1-n1c(CC(C)C)c(C(=O)N2CCNC(C(=O)O)C2)cc(-c2nc(-c3ccc(Cl)cc3)cs2)c1=O (centres unmarked) [Compound 171] | < 300 nM | < 300 nM |
| CCc1cccc(CC)c1-n1c(CC(C)C)c(C(=O)NC[C@@H](N)C(=O)O)cc(-c2nc(-c3ccc(Cl)cc3)cs2)c1=O [Compound 172] | 300 to 1000 nM | < 300 nM |
| CCc1cccc(CC)c1-n1c2c(cc(-c3nc(-c4ccccc4C)cs3)c1=O)C(=O)CC(C)(C)C2 [Compound 173] | 1000 to 5000 nM | 1000 to 5000 nM |
| COc1c(C(=O)O)cccc1-n1c2c(cc(-c3nc(-c4ccc(Cl)cc4)cs3)c1=O)C(=O)CC(C)(C)C2 [Compound 174] | > 20000 nM | 5000 to 20000 nM |
| COc1ccc(OC)c(-n2c3c(cc(-c4nc5cc(Cl)ccc5s4)c2=O)C(=O)CC(C)(C)C3)c1 [Compound 175] | < 300 nM | 300 to 1000 nM |
| CCc1cccc(CC)c1-n1c(C)c(C(=O)N[C@H](C)CO)cc(-c2nc(-c3ccc(Cl)cc3)cs2)c1=O [Compound 176] | 1000 to 5000 nM | 1000 to 5000 nM |
| CC1(C)CC(=O)c2cc(-c3nc(-c4ccc(Cl)cc4)cs3)c(=O)n(-c3cn[nH]c3)c2C1 [Compound 177] | 5000 to 20000 nM | 5000 to 20000 nM |
| CC(C)c1ccccc1-n1c2c(cc(-c3nc(-c4ccc(Cl)cc4)cs3)c1=O)C(=O)CC(C)(C)C2 [Compound 178] | 300 to 1000 nM | 300 to 1000 nM |
| CCc1cccc(CC)c1-n1c2c(cc(-c3nc(-c4ccccc4OC)cs3)c1=O)C(=O)CC(C)(C)C2 [Compound 179] | 1000 to 5000 nM | 1000 to 5000 nM |
| CCc1cccc(CC)c1-n1c(C)c(C(=O)Nc2ccccc2)cc(-c2nc(-c3ccc(Cl)cc3)cs2)c1=O [Compound 180] | > 20000 nM | > 20000 nM |
| CCc1cccc(CC)c1-n1c(CC(C)C)c(C(=O)N2CCNCC2)cc(-c2nc(-c3ccc(F)cc3)c(C)s2)c1=O [Compound 181] | < 300 nM | < 300 nM |
| Cc1ccc([N+](=O)[O-])cc1-n1c2c(cc(-c3nc(-c4ccc(Cl)cc4)cs3)c1=O)C(=O)CC(C)(C)C2 [Compound 182] | 1000 to 5000 nM | 1000 to 5000 nM |
| CCc1cccc(CC)c1-n1c2c(cc(-c3nc(-c4ccc(OC)cc4)cs3)c1=O)C(=O)CC(C)(C)C2 [Compound 183] | 300 to 1000 nM | 300 to 1000 nM |
